In patent US8999981B2, “3-amido-pyrrolo[3,4-C]pyrazole-5(1H, 4H,6H) carbaldehyde derivatives” (Pfizer Inc., priority 2007, dated 2015):

What follows are compounds tested against Protein Kinase C beta 2 (PKCβII) (Homo sapiens (Human), UniProt P05771) (assay: PKCβII coupled PK/LDH spectrophotometric kinase assay). Conditions: apparent Ki, ATP-competitive model (Morrison equation); 0.1 mM ATP, 30° C.; read-out: PKCb Ki.
Type: biochemical

Protein Kinase C beta 2 (PKCβII), sequence (P05771 other isoform, or with tags, fused parts or gaps): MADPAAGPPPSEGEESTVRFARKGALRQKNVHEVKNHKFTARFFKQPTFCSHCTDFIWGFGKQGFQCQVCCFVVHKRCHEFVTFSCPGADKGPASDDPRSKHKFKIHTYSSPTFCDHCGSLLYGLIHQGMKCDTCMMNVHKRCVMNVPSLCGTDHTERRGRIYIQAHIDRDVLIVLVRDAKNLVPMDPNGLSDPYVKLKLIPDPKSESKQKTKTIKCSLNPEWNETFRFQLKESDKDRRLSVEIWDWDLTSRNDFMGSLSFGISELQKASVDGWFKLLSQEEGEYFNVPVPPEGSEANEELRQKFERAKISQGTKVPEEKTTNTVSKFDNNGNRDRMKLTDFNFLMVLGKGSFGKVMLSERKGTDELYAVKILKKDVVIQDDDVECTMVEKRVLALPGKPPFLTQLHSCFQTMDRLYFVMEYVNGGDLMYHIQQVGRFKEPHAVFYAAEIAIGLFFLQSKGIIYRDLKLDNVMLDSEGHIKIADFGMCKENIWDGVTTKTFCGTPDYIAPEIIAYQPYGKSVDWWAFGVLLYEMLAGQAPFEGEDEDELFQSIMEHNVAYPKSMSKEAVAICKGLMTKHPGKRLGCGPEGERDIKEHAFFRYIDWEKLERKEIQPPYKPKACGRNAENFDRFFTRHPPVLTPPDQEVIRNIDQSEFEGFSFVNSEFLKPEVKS

SMILES | Ki [nM]
C[C@@H]1CN(C(=O)N2Cc3c(NC(=O)c4ccc(C#N)cn4)n[nH]c3C2(C)C)[C@@H](C)CN1C1CCOCC1 [Example G1, 5-cyano-N-(5-{[(2S,5R)-2,5-dimethyl-4-(tetrahydro-2H-pyran-4-yl)piperazin-1-yl]carbonyl}-6,6-dimethyl-1,4,5,6-tetrahydropyrrolo[3,4-c]pyrazol-3-yl)pyridine-2-carboxamide] | < 10
CC1(C)c2[nH]nc(NC(=O)c3cccs3)c2CN1C(=O)N1CCN2CCCC2C1 (centres unmarked) [Example A15] | 136
C[C@@H]1CN(C(=O)N2Cc3c(NC(=O)c4ccccn4)n[nH]c3C2(C)C)[C@@H](C)CN1CC1(C)COC1 [Example A153] | 37
C[C@H]1CN2CCC[C@@]2(C)CN1C(=O)N1Cc2c(NC(=O)c3ccc(F)cn3)n[nH]c2C1(C)C [Example A138] | 29.3
C[C@H]1CN2CCC[C@H]2CN1C(=O)N1Cc2c(NC(=O)c3cc(C(F)(F)F)ccc3F)n[nH]c2C1(C)C [Example A35] | 176
Cc1cc(C(=O)Nc2n[nH]c3c2CN(C(=O)N2C[C@@H]4CCCN4C[C@@H]2C)C3(C)C)ccc1F [Example A62] | 50.8
CC(C)[C@H]1CN2CCC[C@H]2CN1C(=O)N1Cc2c(NC(=O)c3ccc(F)cc3F)n[nH]c2C1(C)C [Example A101] | 148
C[C@@H]1CN(C(=O)N2Cc3c(NC(=O)c4coc(C5CC5)n4)n[nH]c3C2(C)C)[C@@H](C)CN1C [Example C8] | 25
Cc1cc(C(=O)Nc2n[nH]c3c2CN(C(=O)N2C[C@@H]4CCCN4C[C@@H]2C)C3(C)C)nc(Cl)n1 [Example A58] | 35.3
C[C@H]1CN2CCC[C@H]2CN1C(=O)C1Cc2c(NC(=O)c3cc(Cl)cc(Cl)c3)n[nH]c2C1(C)C (some centres unmarked) [Example A30] | 22.9
COc1ccc(C(=O)Nc2n[nH]c3c2CN(C(=O)N2C[C@@H]4CCCN4C[C@@H]2C)C3(C)C)nc1 [Example A47] | 65.5
CCc1cc(C(=O)Nc2n[nH]c3c2CN(C(=O)N2C[C@@H](C)N(CC4CCOCC4)C[C@@H]2C)C3(C)C)no1 [Example F19] | 26.5
CCn1nc(C)cc1C(=O)Nc1n[nH]c2c1CN(C(=O)N1C[C@@H](C)N(CC3CCOCC3)C[C@@H]1C)C2(C)C [Example F14] | 20
C[C@@H]1CN(C(=O)N2Cc3c(NC(=O)c4ccc(F)cn4)n[nH]c3C2(C)C)[C@@H](C)CN1CCO [Example A161] | 38.8
CCc1nc(C)c(C(=O)Nc2n[nH]c3c2CN(C(=O)N2C[C@@H](C)N(CC4CCOCC4)C[C@@H]2C)C3(C)C)o1 [Example F1, N-(5-{[(2S,5R)-2,5-dimethyl-4-(tetrahydro-2H-pyran-4-ylmethyl)piperazin-1-yl]carbonyl}-6,6-dimethyl-1,4,5,6-tetrahydropyrrolo[3,4-c]pyrazol-3-yl)-2-ethyl-4-methyl-1,3-oxazole-5-carboxamide] | 22.4
C[C@H]1CN2CCC[C@H]2CN1C(=O)N1Cc2c(NC(=O)c3cncs3)n[nH]c2C1(C)C [Example A43] | 135
CCCN1C[C@H](C)N(C(=O)N2Cc3c(NC(=O)c4ccccn4)n[nH]c3C2(C)C)C[C@H]1CCO [Example A83] | 9.53
Cc1cc(C(=O)Nc2n[nH]c3c2CN(C(=O)N2C[C@@H](C)N(CC4CCOCC4)C[C@@H]2C)C3(C)C)on1 [Example F21] | 38.1
CC1(C)c2[nH]nc(NC(=O)c3cccc(Cl)n3)c2CN1C(=O)N1CCN2CCCC2C1 (centres unmarked) [Example A23] | 55.9
C[C@@H]1CN(C(=O)N2Cc3c(NC(=O)c4ccc(C(F)(F)F)cn4)n[nH]c3C2(C)C)[C@@H](C)CN1CC1CCOCC1 [Example F60] | 4.17
CN1CCN(C(=O)N2Cc3c(NC(=O)c4cccs4)n[nH]c3C2(C)C)[C@@H](Cc2ccccc2)C1 [Example A6] | 187
CCCc1cc(C(=O)Nc2n[nH]c3c2CN(C(=O)N2C[C@@H](C)N(CC4CCOCC4)C[C@@H]2C)C3(C)C)no1 [Example F24] | 59.4

SMILES | Ki [nM]
COc1ccc(C(=O)Nc2n[nH]c3c2CN(C(=O)N2C[C@@H]4CCCN4C[C@@H]2Cc2ccccc2)C3(C)C)cc1 [Example A18] | 30.2
C[C@@H]1CN(C(=O)N2Cc3c(NC(=O)c4ccccn4)n[nH]c3C2(C)C)[C@@H](C)CN1C1CCOCC1 [Example A146] | 1.7
CC(C)C[C@H]1CN2CCC[C@H]2CN1C(=O)N1Cc2c(NC(=O)c3ccc4ccccc4n3)n[nH]c2C1(C)C [Example A12] | 103
CC1(C)CN2CCC[C@H]2CN1C(=O)N1Cc2c(NC(=O)c3ccccn3)n[nH]c2C1(C)C [Example A81] | 125
C[C@@H]1CN(C(=O)N2Cc3c(NC(=O)c4ncccn4)n[nH]c3C2(C)C)[C@@H](C)CN1CC1CCOCC1 [Example F58] | 133
CC1(C)CN2CCC[C@H]2CN1C(=O)N1Cc2c(NC(=O)c3cccc(Cl)c3)n[nH]c2C1(C)C [Example A57] | 87.4
C[C@@H]1CN(C(=O)N2Cc3c(NC(=O)c4ccccn4)n[nH]c3C2(C)C)[C@@H](C)CN1Cc1cocn1 [Example A148] | 48.3
C[C@@H]1CN(C(=O)N2Cc3c(NC(=O)c4cc(C5CC5)on4)n[nH]c3C2(C)C)[C@@H](C)CN1CC1CCOCC1 [Example F11] | 29.8
C[C@H]1CN2CCC[C@H]2CN1C(=O)N1Cc2c(NC(=O)c3cc(C(C)(C)C)nn3C)n[nH]c2C1(C)C [Example E10] | 10.6
CC[C@H]1CN2CCC[C@@]2(C)CN1C(=O)N1Cc2c(NC(=O)c3ccc(F)cn3)n[nH]c2C1(C)C [Example A139] | 75.2
C[C@H]1CN2CCC[C@H]2CN1C(=O)N1Cc2c(NC(=O)c3cc4ccccc4cn3)n[nH]c2C1(C)C [Example E3] | 5.51
CN1CCN(C(=O)N2Cc3c(NC(=O)c4ccc5ccccc5n4)n[nH]c3C2(C)C)[C@@H](Cc2ccccc2)C1 [Example A8] | 78.1
CCc1cc(C(=O)Nc2n[nH]c3c2CN(C(=O)N2C[C@@H](C)N(CC4CCOCC4)C[C@@H]2C)C3(C)C)on1 [Example F18] | 32.1
CC1CN(C(=O)N2Cc3c(NC(=O)c4ccccn4)n[nH]c3C2(C)C)CCN1CC1CC1 (centres unmarked) [Example A127] | 134
CC1(C)c2[nH]nc(NC(=O)c3ccc4ccccc4n3)c2CN1C(=O)N1CCN2CCCC2C1 (centres unmarked) [Example A11] | 73.9
CC1(C)c2[nH]nc(NC(=O)c3ccccn3)c2CN1C(=O)C1(F)CCN(C2CCOCC2)CC1 [Example B2, Pyridine-2-carboxylic acid {5-[4-fluoro-1-(tetrahydro-pyran-4-yl)-piperidine-4-carbonyl]-6,6-dimethyl-1,4,5,6-tetrahydro-pyrrolo[3,4-c]pyrazol-3-yl}-amide] | 89.8
CN1CCN(C(=O)N2Cc3c(NC(=O)c4cccc(Oc5ccccc5)c4)n[nH]c3C2(C)C)C(c2ccccc2)C1 (centres unmarked) [Example A9] | 159
C[C@@H]1CN(C(=O)N2Cc3c(NC(=O)c4ccccn4)n[nH]c3C23CC3)[C@@H](C)CN1CC1CCOCC1 [Example A152] | 76.2
CCCN1C[C@H](C)N(C(=O)N2Cc3c(NC(=O)c4ccc(F)cc4F)n[nH]c3C2(C)C)C[C@H]1CCO [Example A102] | 45.9
CC(C)[C@H]1CN(C)C(C)(C)CN1C(=O)N1Cc2c(NC(=O)c3ccccn3)n[nH]c2C1(C)C [Example A134] | 90.1
Cc1cc(C)nc(C(=O)Nc2n[nH]c3c2CN(C(=O)N2C[C@@H]4CCCN4C[C@@H]2C)C3(C)C)c1 [Example A51] | 20.9
Cc1cnc(C(=O)Nc2n[nH]c3c2CN(C(=O)N2C[C@@H]4CCCN4C[C@@H]2C)C3(C)C)cn1 [Example E2] | 72.9
